Here are results for two compounds from patent US9278097B2, “Prophylaxis and/or treatment of portal hypertension” (Universitatsklinikum Freiburg, priority 2003, dated 2016).

Assay type in all cases: in vivo, human
Assay [1] relates to volunteers. Kind of assay: Sonographic / Doppler sonographic measurement of blood flow through the liver and blood pressure before and 90 minutes after oral Sildenafil. As to conditions: 100 mg oral. How it is done: With ten volunteers, the base values of the blood flow through the liver were measured in the morning before breakfast by means of common sonographic or Doppler sonographic methods. Subsequently, 100 mg Sildenafil were administered orally for each test person. On the average, 90 minutes after administration of this drug, the measurements were repeated.

For assay [2], the system named is volunteers. The assay is described as above. To be noted: 100 mg oral, n = 5, baseline mean 0.83.
In assay [3] the test system is patients having portal hypertension (origin: liver cirrhosis in the status of Child A). The experiment in a line: Doppler sonography of liver haemodynamics before and 1 h after oral Vardenafil, patients. As to conditions: continuous measurement after 10 mg oral, FIG. 4. The protocol: In a further study, 16 healthy volunteers and 15 patients having portal hypertension (origin: liver cirrhosis in the status of Child A) were subjected to the following treatment:
In both the volunteers and the patients with empty stomach (10 hours of food leave), firstly the pulse rate and blood pressure under lying condition and subsequently the parameters of liver haemodynamics were measured by Doppler sonography.
The portal vein pressure is derived from the values obtained from the application of the apparatus Elegra from Siemens having a 3.5 MHz sectorial scanner (K. Haag et al., Am. J. Roentgenol 1999; 172: 631-635). Each measurement was carried out three times in total. The mean value from all three measurements was used. The measurements were carried out in the resting expiratory position. When measuring the flows and the flow volumina, the sonic angle lied below 60°. The sectional plane was basically chosen such that the vessel will be illustrated in its longitudinal route.
Flow measurements in the Vena portae as well as in their intrahepatic main stems. The determination of the flow volume in the portal vein, the Vena lienalis and the Vena mesenterica was carried out by Doppler-sonography, as measured by the options of the apparatus and by calculation through the formula: flow=π·d^2/4·Vmax2·60, wherein d is indicated in cm and Vmax is indicated in cm/s. Vena Lienalis: […]

Assay [4] deals with patients, who had a pathological collateral or detour circulation, as originally caused by liver cirrhosis. The experiment in a line: Doppler sonography of flow in the porto-systemic detour circulation before and after oral Vardenafil. As to conditions: two patients, single oral administration of 10 mg. How it is done: Hereby, before and after a single oral administration of 10 mg Vardenafil, the flow in the porto-systemic detour circulation was measured by Doppler-sonography: once in a patient having V. coronaria ventriculi as well as oesophagus varices, and another time in a patient having re-opened V. umbilicalis.

Assay [5] deals with patient having liver cirrhosis due to a chronic Hepatitis C. Kind of assay: Invasive measurement of wedged hepatic vein pressure (portal vein pressure) by balloon catheter. As to conditions: one patient, 25 minutes after 10 mg oral; 31 mm Hg prior to administration. How it is done:
In a patient having liver cirrhosis due to a chronic Hepatitis C, the wedged hepatic vein pressure, which can be equated with the portal vein pressure, was measured invasively. For this, a balloon catheter was introduced through the Vena jugularis interna into a small hepatic vein under X-ray control. Then, the free hepatic vein pressure may be measured, when the tip of the catheter lies freely in the lumen of the small vein. When the balloon is dilated (the diameter of this small hepatic vein amounts to a few mm), a congestion pressure is built-up at the tip of the catheter, corresponding to the portal vein pressure. In the tested patient, the portal vein pressure prior to the oral administration of a medicament was at 31 mm Hg.

Turning to `CCCc1nn(C)c2c(=O)[nH]c(-c3cc(S(=O)(=O)N4CCN(C)CC4)ccc3OCC)nc12` [Sildenafil, 1-{[3-(6,7-Dihydro-1-methyl-7-oxo-3-propyl-1H-pyrazolo-[4,3-d]pyrimidin-5-yl)-4-ethoxyphenyl]sulfonyl}-4-methyl-piperazine], in the assay on volunteers [1] (90 minutes, n = 10), the “Diameter of V. lienalis, change by Sildenafil (in %)” value is given as “+13%”; the “Diameter of portal vein, change by Sildenafil (in %)” value is reported as “+12.8%”; the “Diastolic blood pressure, change by Sildenafil (in %)” value is listed as −9.5%; the “Resistivity Index of A. hepatica communis, change by Sildenafil (in %)” value is “+4.48%”. Further, in the assay with volunteers [1] (90 minutes, n = 10), the “Resistivity Index of Truncus coeliacus, change by Sildenafil (in %)” value was −1.5%; the “Vmax of V. lienalis, change by Sildenafil (in %)” value is −2.3%; the “Vmax of portal vein, change by Sildenafil (in %)” value was −5.3%. Further, the “Resistivity Index of A. hepatica communis, change by Sildenafil (absolute)” value with volunteers [1] (90 minutes, n = 10, baseline mean 0.67) is on record as “+0.03”. For the same compound, in the assay on volunteers [1] (90 minutes, n = 10, baseline mean 0.75), the “Resistivity Index of Truncus coeliacus, change by Sildenafil (absolute)” value is given as −0.115. Besides, in the assay on volunteers [1] (90 minutes, n = 10, baseline mean 7.7), the “Diameter of V. lienalis, change by Sildenafil (absolute)” value was found to be 1.0 mm. Besides, the “Diameter of portal vein, change by Sildenafil (absolute)” value with volunteers [1] (90 minutes, n = 10, baseline mean 11.7) is reported as 1.5 mm. Moreover, in the assay with volunteers [1] (90 minutes, n = 10, baseline mean 20.14), the “Vmax of V. lienalis, change by Sildenafil (absolute)” value is -0.47 cm/s. For the same compound, in the assay with volunteers [1] (90 minutes, n = 10, baseline mean 30.5), the “Vmax of portal vein, change by Sildenafil (absolute)” value is -1.63 cm/s. The “Diastolic blood pressure, change by Sildenafil (absolute)” value with volunteers [1] (90 minutes, n = 10, baseline mean 80.5) is −7.64 mm Hg. Besides, the “Systolic blood pressure, change by Sildenafil (in %)” value with volunteers [1] (on average 90 minutes after administration, n = 10) is on record as −10.0%. In the assay with volunteers [1] (on average 90 minutes after administration, n = 10, baseline mean 122), the “Systolic blood pressure, change by Sildenafil (absolute)” value was −12.21 mm Hg. Moreover, the “Portal vein flow, change by Sildenafil (absolute)” value in the assay on volunteers [2] is “+0.27 l/mm”.

For the compound `CCCc1nc(C)c2c(=O)[nH]c(-c3cc(S(=O)(=O)N4CCN(CC)CC4)ccc3OCC)nn12` [Vardenafil], the “Time after which increase of flow velocity in the portal vein and portal vein flow is clearly detectable” value in assay [3] (individual patient (liver cirrhosis), similar in practically all other patients) is 15 min. The “Time at which effect on portal vein flow is most pronounced” value in assay [3] (individual patient) lay in the range of 20 to 30 min. Besides, the “Decrease of flow in the V. coronaria ventriculi or in the umbilical vein” value in assay [4] is “about 30%”. For the same compound, the “Portal vein pressure (wedged hepatic vein pressure)” value in assay [5] is recorded as 26 mm Hg.
